Measurements: US20250276996A1, “CATIONICALLY-ENFRAMED HIGH DENSITY AROMATIC PEPTIDES” (Research Foundation of the City University of New York, priority 2022, published 2025)
Entries after “also recorded” stand apart in the source; their conditions may differ. Non-standard residues stand in square brackets, D forms with d. Residues, ends and D or L forms follow the SMILES beside them. *: point of attachment. Biotin = O=C1N[C@H]2[C@H](CS[C@H]2CCCCC(=O)*)N1

Assays:
[1] = tested on: retinal ganglion cells (RGCs); assay: Optic nerve crush (ONC), retinal ganglion cell survival; assay type: in vivo, C57BL/6 mice; settings: for Average density of retinal ganglion cells: 3 mg/kg IP daily 14 days
From the text: Quantification of Retinal Ganglion Cell Survival: To test whether the protective effects of biotin-HDAP2 in serum-starved cultured cells extended to neurons in vivo, the survival of RGCs following optic nerve crush (ONC) in the presence and absence of the peptide was studied. To control for density differences of RGCs across the retina, values were standardized by comparing ratios of RBPMS-labeled RGCs with the densities of starburst amacrine cells labeled by choline acetyltransferase (ChAT). Starburst amacrine cells, like other displaced amacrine cells, are unaffected by ONC in the short-term. In control tissue, displaced starburst amacrine cells accounted for about […] of cells in the ganglion cell layer and ratios of RBPMS labeled cells to ChAT neurons was about 4 to 1 in central retina and 3 to 1 at other eccentricities (FIG. 11B).
Optic Nerve Crush Procedure: Adult mice (2-6 mo.) were anesthetized with a cocktail of ketamine (85 mg/kg) and xylazine (20 mg/kg) (IP), the corneas were numbed with a drop of 0.5% proparacaine hydrochloride ophthalmic solution (Falcon Pharmaceuticals), and the animals were positioned under a Nikon dissecting microscope, dorsolaterally either on the left or right sides. The dorsomedial conjunctiva was cut with microdissection spring scissors, the […] muscles were separated, and the eyeball was slightly retracted to expose the optic nerve. Fine, self-closing forceps (Roboz, RS-5027) were used to clamp the optic nerve 1-2 mm behind the globe, for approximately 3 seconds without applying additional tension. The eye was repositioned within the orbit, the conjunctiva reflected over the extraocular eye muscles and the incision covered with ophthalmic polymyxin B-neomycin-bacitracin ointment (3.5 mg/gm, Bausch and Lomb). The optic nerves from the contralateral eye were untouched and used as untreated controls. Following the crush procedure, mice were given a subcutaneous injection of extended-release buprenorphine (0.05 mg/kg, Ethiqua XR) for analgesia and placed on a heating pad until awake and grooming, at which point they were returned to their home cages. Half the animals were given biotin-HDAP2 immediately following the procedure and then daily thereafter (3 mg/kg, IP) for 14 days.
Immunohistochemistry: Fixed retinas were labeled with cell markers using conventional immunohistochemical protocols to identify cells and structures associated with biotin-HDAP2, and to identify retinal ganglion cells and starburst amacrine cells to assess cell survival following optic nerve crush. Retinas and sections were blocked and permeabilized with 4% normal donkey serum in 0.1M Tris or phosphate buffers with 0.5% Triton-X for 1 hour and then incubated overnight (for sections) or for 3 days (for wholemounts) at 4° C. in selected primary antibodies, and 2% normal donkey serum in the same buffer. The tissue was rinsed 3×10 minutes with buffer and then incubated with secondary antibodies for one hour at room temperature (sections) or overnight at 4° C. for wholemounts. Antibodies and markers used were rabbit anti-RBPMS (1:200; Invitrogen, PA5-31231) to label all retinal ganglion cells; goat anti-choline acetyltransferase (ChAT 1:100; EMD Millipore, AB144P) to label starburst amacrine cells; rabbit anti-glutamine synthetase (1:200; Invitrogen, PA1-46165) to label Müller cells; and rabbit anti-cox4 (1:200; Invitrogen, PA5-29992) to identify mitochondria. Secondary antibodies were raised in donkey and conjugated with either Alexa Fluor 488, 594 or 647 (1:500, Life Sciences). To identify the distribution of cell nuclei, and to delineate retinal layers, tissue was labeled with the nuclear stain ToPro3 (1:1000; Invitrogen) for 15 minutes. After staining, sections and retinas were rinsed in buffer and coverslipped in Vectashield mounting media (Vector Labs) to prevent photobleaching. […]

[2] = NAO fluorescence with POPC liposomes; assay type: binding
Protocol: The resulting multilamellar vesicles were vortexed lightly and sized into small unilamellar vesicles by heated bath sonication for 25 min. All liposomes were cooled to ambient temperature before use.
Interaction of biotin-HDAP2 Peptide with Phospholipids: The ability of biotin-HDAP2 to displace nonyl acridine orange (NAO), a fluoroprobe known to selectively bind CL was determined. Interaction of biotin-HDAP2 with phospholipids was examined by measuring changes in the fluorescence spectra of 3 μM NAO (Molecular Devices, Sunnyvale, CA)) with excitation at 480 nm. CL and POPC in liposomes were use at 30 μM. Dose response curves were done with 30 μM CL, biotin-HDAP2 (0, 2.5, 5, 10, 20, and 30 μM), and 3 μM of NAO (ex/em at 480 nm/520 nm). All experiments were done in 10 mM Hepes (pH 7.4) to optimize electrostatic interactions of peptides with phospholipids.

[3] = tested on: antimycin-induced scratching; assay: Topical antimycin-induced scratching; assay type: in vivo, C57BL/6J mice; settings: 100 μM topical with 200 μM antimycin, 60 min
Protocol: However, antimycin-induced scratching in mice was […] by biotin-free HDAP2. Dermal administration of antimycin, a mitochondrial Complex III irreversible inhibitor, is known to induce ROS formation and oxidative stress in C fibers of sensory neurons, resulting in severe scratching in mice. Biotin-HDAP2 and biotin-free HDAP2 were tested to see if either can inhibit topical antimycin-induced itching in 12 months old C57BL/6J mice. […] Specifically, 200 μM of topical antimycin in methanol induced itching, which was monitored for 60 min. […] Error bars represent SEM (n=3) **P<0.001. Topical administration of 100 μM of biotin-free HDAP2 with antimycin increased scratching by 2.5 fold. Error bars represent SEM (n=3) ***P<0.0001.

[4] = Water solubility

N=C(N)NCCC[C@@H](NC(=O)[C@H](Cc1ccccc1)NC(=O)[C@H](Cc1ccccc1)NC(=O)[C@@H](CCCNC(=N)N)NC(=O)CCCC[C@@H]1SC[C@@H]2NC(=O)N[C@@H]21)C(N)=O [biotin-HDAP2, Biotin-dArg-Phe-Phe-dArg-NH2] (Biotin-[dR]FF[dR]-NH2)
protection of retinal ganglion cells following optic nerve crush ([1]; 3 mg/kg): protected retinal ganglion cells following optic nerve crush; also recorded: significantly greater survival of retinal ganglion cells | Average density of retinal ganglion cells ([1]; Central, ONC): 446.1 ± 42.92 cells/mm2 | Average density of retinal ganglion cells ([1]; Midperipheral, ONC): 694.5 ± 52.61 cells/mm2 | expression of RBPMS compared to untreated ([1]; ONC): doubled | ratio of RGCs to ChAT cells (to 1) ([1]; ONC, treated): 0.70 | more RBPMS labeled cells than untreated animals ([1]; ONC, treated daily): 40% | expression of RBPMS (mean pixel intensity) ([1]; ONC, treated, n=23): 9.8±0.78 arbitrary fluorescence units | survival of retinal ganglion cells greater compared to untreated controls ([1]; ONC, intraperitoneal or subcutaneous administration): 50% | Average density of retinal ganglion cells ([1]; Peripheral, ONC): 565.4 ± 53.61 cells/mm2 | percent increase in RBPMS labeled cells vs untreated ONC ([1]; central retina): 18% | percent increase in RBPMS labeled cells vs untreated ONC ([1]; midperipheral retina): 38% | percent increase in RBPMS labeled cells vs untreated ONC ([1]; periphery): 50% | effect on interaction between NAO and POPC liposomes [2]: did not interfere with the interaction between NAO and the POPC liposomes | effect on antimycin-induced scratching [3]: inhibited scratching | water solubility [4]: water soluble
